Consider one compound from US11078496B2, “System for F-box hormone receptor regulated protein expression in mammalian cells” (ICAHN SCHOOL OF MEDICINE AT MOUNT SINAI, priority 2016, dated 2021).

The structures appear in SMILES notation.

For this series, the system named is human ESCs. Put plainly: Proliferation of H9 ESCs under coronatine (growth curves). It is filed as cell-based. To be noted: H9 cells expressing pJAZ NLS-GFP-OsJAZ^33, 50 μM coronatine vs 0.1% DMSO, counted daily. The text has this: FIG. 10A is a sequence alignment of O. sativa coronatine-degradable proteins (Tan et al., “Mechanism of Auxin Perception by the TIR1 Ubiquitin Ligase,” Nature 446:640-645 (2007), which is hereby incorporated by reference in its entirety) OsJAZ1 (NP_001064513.1; SEQ ID NO: 4), OsJAZ2 (NP_001049167.1; SEQ ID NO: 5), OsJAZ7 (NP_001063273.1; SEQ ID NO: 6), OsJAZ3 (NP_001049166.1; SEQ ID NO: 7), and A. thaliana AtJAZ1 (NP_564075; SEQ ID NO: 8). Degron sequences used in this study are highlighted and degron names indicated on the right. […] GFP level was analyzed by flow cytometry and % degradation was calculated as described in the Methods. […] FIG. 10F show GFP fluorescence histograms derived from flow cytometric analysis of HEK-293T cells infected with the indicated pJAZ versions, selected and treated with either 0.1% DMSO (“Con”) or 50 μM coronatine (“Cor”). Parental HEK-293T cells were analyzed as a control for background autofluorescence. […] FIG. 10H show the relative median fluorescence of HEK-293T cells infected with pJAZ 7 harboring either GFP-OsJAZ^33 or NLS-GFP-OsJAZ^33. Cells were selected and treated with increasing concentrations of coronatine (“Cor”) and analyzed after 24 hours (left panel), or with 50 μM coronatine for the indicated time periods (right panel). GFP fluorescence was analyzed by flow cytometry. […] Cells were counted daily and growth curves are plotted in FIG. 10K. […]

As for `CC[C@H]1C=C(C(=O)N[C@@]2(C(=O)O)C[C@@H]2CC)[C@H]2CCC(=O)[C@H]2C1` [coronatine, Coronatine], the effect on proliferation result is recorded as “does not affect proliferation”.
